Test results as given in article PMC4627284, “High-throughput simultaneous screen and counterscreen identifies homoharringtonine as synthetic lethal with von Hippel-Lindau loss in renal cell carcinoma” (Oncotarget, 2015).

Experiments:
[1] = system: VHL-deficient 786-O cells; assay: High-throughput simultaneous screen and counterscreen, 1:1 mix of EV^GFP and VHL^mCh 786-O cells, fluorescence imaging; format: cell-based, human; conditions: 2 nM; equally affected VHL-deficient and VHL-reconstituted cells
Excerpt: To identify small molecule compounds synthetic lethal with VHL, we carried out an unbiased cell-based screen of a chemical library of ~12,800 compounds using 786-O cells, an extensively studied cell line derived from a VHL-deficient primary human ccRCC [26]. 786-O cells were stably transfected with either an empty vector (EV) control or reconstituted with an HA-tagged VHL cDNA. […] To distinguish between the two otherwise isogenic cell lines, we transduced the VHL-deficient 786-O cells with a histone H2B-GFP reporter and the VHL-reconstituted cells with an H2B-mCherry reporter. The histone proteins drive the fluorochrome to nuclei facilitating cell identification and segmentation algorithms (Figure 1A and 1B). […]
Figure 1 Screening strategy to identify compounds that are synthetic lethal with VHL A. Schematic diagram of a ~12,800 chemical library synthetic lethal screen. […] Fluorescence imaging (using the BD Pathway 855 imager) was used to identify compounds preferentially depleting VHL-deficient/GFP-positive cells after cells were segmented. B. Left panel: Representative image of fluorescence signal from Hoescht-labeled 786-O cells. Right panel: overlay of GFP fluorescence signal (green; from 786-O EV^GFP cells) and mCherry fluorescence nuclear signal (red; VHL^mCh cells). […] Toxicity was determined as ≤100 VHL^mCh cells per field. […]

[2] = system: VHL-mutant patient-derived ccRCC tumorgraft lines; assay: ccRCC tumorgraft model, six VHL-mutant tumorgraft lines; format: in vivo, NOD/SCID mice; conditions: 0.5 mg/kg IP once every 48 hours, positive control
Protocol: We selected 6 independently-derived ccRCC tumorgraft lines that were confirmed to have VHL mutation. The mice (3-5 mice per tumorgraft line) were treated with either HHT (0.7 mg/kg), vehicle (as a negative control), or rapamycin (0.5 mg/kg; as a positive control). In total, 65 tumorgraft bearing mice were evaluated for these experiments in time courses lasting ~28 days, with tumor growth measured every 3 or 4 days.
Figure 3 HHT inhibits tumor growth in a ccRCC tumorgraft model A-F, Tumorgraft lines were treated with vehicle control, HHT (0.7 mg/kg), rapamycin (0.5 mg/kg), (or the combination, where indicated) and tumor growth was measured on the indicated days. Day 0 represents the first day of treatment.
Tumorgrafts were generated and propagated as described previously, with tumor samples implanted subcutaneously into the flank of the mouse for drug trials. Briefly, 4- to 8-week-old NOD/SCID mice were anesthetized with isoflurane and implanted subcutaneously with 64 mm^3 tumor fragments (cohorts 2-20). Once tumors reached an average of at least ~250 mm^3, drug treatment was begun. The mice were treated with vehicle, 0.7 mg/kg homoharringtonine (HHT) via gavage twice daily, or 0.5 mg/kg rapamycin given by IP injection once every 48 hours. Tumor size (volume) was measured twice weekly and was obtained by multiplying tumor length, width, and depth using calipers. To assess toxicity, mouse weight was monitored once weekly.
Sections from tumors were stained with hematoxylin and eosin (H&E) as described previously.

CO[C@H]1C[C@@H]2CC[C@@H](C)[C@@](O)(O2)C(=O)C(=O)N2CCCC[C@H]2C(=O)O[C@H]([C@H](C)C[C@@H]2CC[C@@H](O)[C@H](OC)C2)CC(=O)[C@H](C)/C=C(\C)[C@@H](O)[C@@H](OC)C(=O)[C@H](C)C[C@H](C)/C=C/C=C/C=C/1C [rapamycin, Rapamycin (sirolimus)]
effect on cell proliferation [1]: modestly reduced cell proliferation | response of tumorgraft lines [2]: Most lines responded
